# Values of other authors in patent US20240190825A1, “PROCESS FOR PREPARATION OF CABOZANTINIB” (BIOCON LIMITED, priority 2021, published 2024).
smiles,measurement,setting,value
"COc1cc2nccc(Oc3ccc(NC(=O)C4(C(=O)Nc5ccc(F)cc5)CC4)cc3)c2cc1OC.O=C(O)C[C@H](O)C(=O)O [Cabozantinib (S)-malate salt, N-(4-(6,7-dimethoxyquinolin-4-yloxy)phenyl)-N′-(4fluorophenyl)cyclopropane-1,1-dicarboxamide, (2S)-hydroxybutanedioate]",solubility in aqueous media,aqueous media,practically insoluble
"COc1cc2nccc(Oc3ccc(NC(=O)C4(C(=O)Nc5ccc(F)cc5)CC4)cc3)c2cc1OC [Cabozantinib, N-(4-(6,7-dimethoxyquinolin-4-yloxy)phenyl)-N′-(4Fluorophenyl) cyclopropane-1,1-dicarboxamide]",water solubility,water,poorly water-soluble
COc1cc2nccc(Oc3ccc(NC(=O)C4(C(=O)Nc5ccc(F)cc5)CC4)cc3)c2cc1OC.O=C(O)C[C@H](O)C(=O)O [crystalline form M4],solubility of crystal form,as disclosed in WO2020057622 A1 on WO2015177758 A1 forms,low
